Our source for the IC50 values is patent US10239843B2 (CANCER RESEARCH TECHNOLOGY LIMITED, priority 2014, dated 2019).

The target in test [1] is Human Full Length PARG (Homo sapiens (Human), UniProt Q86W56). The test is described as follows: PARG enzyme assay (TR-FRET). The class given is biochemical.
Test [2] concerns PARG in HeLa cell line. The test can be described thus: PARG cell assay (PAR chain immunofluorescence after MMS). It counts as cell-based. Conditions: HeLa cells. A digest of the protocol:
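HeLa cells were dosed with compound for 1 h, then given MMS at 50 μg/mL final for a further hour. Cells were methanol-fixed, permeabilised and stained overnight at 4° C with anti-PAR monoclonal antibody. Retained nuclear PAR chains, detected by indirect immunofluorescence, indicate PARG inhibition.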

Test [3] has as its target Human Full Length ARH3 (Homo sapiens (Human), UniProt Q9NX46). The test is described as follows: ARH3 in vitro selectivity assay (TR-FRET). The class given is biochemical. The settings on record: read-out: ARH3 Biochem IC50. For orientation: Time-resolved FRET reads energy transfer from a long-lived donor to a nearby acceptor.
Procedure: ARH3 In vitro selectivity assays were conducted in a total volume of 15 ul in a standard 384 well format.
In test [4] the target is Human High specific Activity PARP1 (Homo sapiens (Human), UniProt P09874). The test is described as follows: PARP1 in vitro selectivity assay (histone PARylation, luminescence). It counts as biochemical. The settings on record: read-out: PARP1 Biochem IC50. The method, then:
PARP1 In vitro selectivity assays were conducted as a 10 ul reaction volume in a NUNC Maxisorp 384-well assay plate pre-coated in-house with Histones. […] The wells were then washed with PBS/0.1% Triton X100. PARP1 activity was then detected by measuring the extent of PARylation. […] Luminescence signal was then measured immediately.

[5] abbreviates: read-out: PARG Biochem IC50 Geomean.
Where [6] appears, read: MMS 50 μg/mL, read-out: PARG Cell IC50 Geomean.
[7] abbreviates: Homo sapiens, MMS 50 μg/mL, read-out: PARG Cell IC50 Geomean.
The mark [8] stands for this setting: Homo sapiens, MMS treatment, read-out: PARG Cell IC50.

Read-outs that look alike come from different tables or passages of the source.

Human Full Length PARG, sequence (Q86W56 whole entry): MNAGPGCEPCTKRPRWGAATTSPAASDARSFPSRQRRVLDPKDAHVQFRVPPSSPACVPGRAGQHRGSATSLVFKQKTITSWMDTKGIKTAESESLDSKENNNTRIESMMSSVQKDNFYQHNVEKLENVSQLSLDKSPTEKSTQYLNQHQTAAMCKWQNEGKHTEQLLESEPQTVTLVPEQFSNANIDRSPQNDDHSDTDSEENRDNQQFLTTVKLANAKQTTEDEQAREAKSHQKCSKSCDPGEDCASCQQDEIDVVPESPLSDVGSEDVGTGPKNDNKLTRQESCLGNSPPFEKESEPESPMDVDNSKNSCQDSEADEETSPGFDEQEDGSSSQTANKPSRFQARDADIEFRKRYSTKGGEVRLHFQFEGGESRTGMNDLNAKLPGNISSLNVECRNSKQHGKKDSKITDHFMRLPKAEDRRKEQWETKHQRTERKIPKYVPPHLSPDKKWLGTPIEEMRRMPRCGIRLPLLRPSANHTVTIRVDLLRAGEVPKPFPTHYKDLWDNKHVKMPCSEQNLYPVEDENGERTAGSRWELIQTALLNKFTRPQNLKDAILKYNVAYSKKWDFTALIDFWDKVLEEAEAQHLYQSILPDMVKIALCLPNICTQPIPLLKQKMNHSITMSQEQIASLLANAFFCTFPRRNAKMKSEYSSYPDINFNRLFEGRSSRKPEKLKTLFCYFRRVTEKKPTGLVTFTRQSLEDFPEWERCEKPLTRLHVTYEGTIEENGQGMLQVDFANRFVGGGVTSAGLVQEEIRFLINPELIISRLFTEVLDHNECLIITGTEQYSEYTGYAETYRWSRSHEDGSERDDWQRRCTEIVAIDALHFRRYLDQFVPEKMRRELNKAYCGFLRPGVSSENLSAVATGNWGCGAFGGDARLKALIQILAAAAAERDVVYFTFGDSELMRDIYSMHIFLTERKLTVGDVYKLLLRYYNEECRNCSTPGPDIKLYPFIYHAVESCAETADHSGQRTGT
Human High specific Activity PARP1, sequence (P09874 whole entry): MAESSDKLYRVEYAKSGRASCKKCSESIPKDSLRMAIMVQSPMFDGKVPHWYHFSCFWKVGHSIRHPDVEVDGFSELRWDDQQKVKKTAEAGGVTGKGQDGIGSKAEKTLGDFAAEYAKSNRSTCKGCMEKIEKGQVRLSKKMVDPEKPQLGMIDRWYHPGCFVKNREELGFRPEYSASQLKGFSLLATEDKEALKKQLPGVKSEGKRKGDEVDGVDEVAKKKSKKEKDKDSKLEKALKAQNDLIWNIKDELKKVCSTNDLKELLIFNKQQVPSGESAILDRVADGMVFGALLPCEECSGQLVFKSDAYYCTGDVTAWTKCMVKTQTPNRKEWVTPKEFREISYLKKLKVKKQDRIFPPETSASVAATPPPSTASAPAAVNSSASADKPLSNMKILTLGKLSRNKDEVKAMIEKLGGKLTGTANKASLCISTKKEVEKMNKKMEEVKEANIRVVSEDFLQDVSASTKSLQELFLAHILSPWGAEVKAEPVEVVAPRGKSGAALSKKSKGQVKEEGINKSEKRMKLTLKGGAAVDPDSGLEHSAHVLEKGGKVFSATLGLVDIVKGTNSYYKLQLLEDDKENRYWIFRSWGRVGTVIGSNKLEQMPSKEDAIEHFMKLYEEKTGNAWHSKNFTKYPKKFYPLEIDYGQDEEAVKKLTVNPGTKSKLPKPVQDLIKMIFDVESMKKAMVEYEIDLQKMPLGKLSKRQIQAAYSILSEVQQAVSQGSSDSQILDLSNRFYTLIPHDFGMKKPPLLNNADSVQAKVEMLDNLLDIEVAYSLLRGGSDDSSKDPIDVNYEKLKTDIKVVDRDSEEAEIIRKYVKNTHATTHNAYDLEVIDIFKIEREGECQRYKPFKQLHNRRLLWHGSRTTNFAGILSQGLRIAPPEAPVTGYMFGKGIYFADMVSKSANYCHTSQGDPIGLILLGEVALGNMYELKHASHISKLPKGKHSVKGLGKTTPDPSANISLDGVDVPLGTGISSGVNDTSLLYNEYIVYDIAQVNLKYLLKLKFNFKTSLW
Human Full Length ARH3, sequence (Q9NX46 whole entry): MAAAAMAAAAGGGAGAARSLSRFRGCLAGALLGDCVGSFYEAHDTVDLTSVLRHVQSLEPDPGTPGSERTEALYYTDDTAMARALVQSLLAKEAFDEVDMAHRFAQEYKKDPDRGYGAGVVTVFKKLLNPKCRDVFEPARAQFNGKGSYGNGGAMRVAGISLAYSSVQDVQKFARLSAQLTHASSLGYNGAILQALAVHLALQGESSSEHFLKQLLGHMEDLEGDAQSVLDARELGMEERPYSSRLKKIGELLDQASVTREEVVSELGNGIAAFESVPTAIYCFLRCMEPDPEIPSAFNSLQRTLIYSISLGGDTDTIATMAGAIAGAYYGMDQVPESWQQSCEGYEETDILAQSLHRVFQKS

`Cc1nc(C)c(Cn2c(=O)n(C)c(=O)c3cc(S(=O)(=O)NC4(C)CC4)ccc32)s1` [Example 133]: the IC50 in test [1] (setting [5]) was 184 nM; in test [2] (setting [6]), 124 nM; in test [3] it was greater than 100000 nM; in test [4] it was greater than 150000 nM.

Turning to `Cc1cc(Cn2c(=O)c3cc(S(=O)(=O)NC4(C)CC4)ccc3n(C)c2=O)on1` [Example 180], the concentration for half-maximal inhibition (IC50) in test [1] (setting [5]) was 426 nM; in test [2] (setting [7]) it was 460 nM; in test [3], greater than 150000 nM; in test [4], greater than 150000 nM.

For `C#CCn1c(=O)n(Cc2cnc(C)s2)c(=O)c2cc(S(=O)(=O)NC3(C)CC3)ccc21` [Example 161], the concentration for half-maximal inhibition (IC50) in test [1] (setting [5]) is 45 nM; in test [2] (setting [6]) it was 82 nM; in test [3] it was greater than 100000 nM; in test [4], greater than 150000 nM.

Turning to `CCn1c(=O)n(Cc2nnc(C)s2)c(=O)c2cc(S(=O)(=O)NC3(CF)CC3)ccc21` [Example 602, 1-Ethyl-N-[1-(fluoromethyl)cyclopropyl]-3-[(5-methyl-1,3,4-thiadiazol-2-yl)methyl]-2,4-dioxo-quinazoline-6-sulfonamide], the half-inhibitory concentration (IC50) in test [1] (read-out: PARG Biochem IC50) is 131 nM; in test [2] (setting [8]), 135 nM; in test [3] it was greater than 150000 nM; in test [4], greater than 150000 nM.

For `Cc1nc(C)c(Cn2c(=O)n(Cc3cnn(C)c3)c(=O)c3cc(S(=O)(=O)NC4(CF)CC4)ccc32)s1` [Example 463, 1-[(2,4-Dimethylthiazol-5-yl)methyl]-N-[1-(fluoromethyl)cyclopropyl]-3-[(1-methylpyrazol-4-yl)methyl]-2,4-dioxo-quinazoline-6-sulfonamide], the IC50 in test [1] (read-out: PARG Biochem IC50) was 6 nM; in test [2] (setting [8]) it was 9 nM; in test [3], greater than 150000 nM; in test [4], greater than 150000 nM.

In the case of `Cc1cc(Cn2c(=O)n(Cc3cnn(C)c3)c(=O)c3cc(S(=O)(=O)NC4(C)CC4)ccc32)n(C)n1` [Example 173], the 50% inhibitory concentration (IC50) is 18 nM in test [1] (setting [5]), 88 nM in test [2] (setting [6]), greater than 150000 nM in test [3] and greater than 150000 nM in test [4].

Regarding `Cc1ncc(Cn2c(=O)c3cc(S(=O)(=O)NC4(C)CC4)ccc3n(CC3CC3)c2=O)s1` [Example 156], the IC50 is 19 nM in test [1] (setting [5]), 28 nM in test [2] (setting [7]), greater than 100000 nM in test [3] and greater than 150000 nM in test [4].

Take `Cc1noc(C)c1Cn1c(=O)c2cc(S(=O)(=O)NC3(C)CC3)ccc2n(CC2CC2)c1=O` [Example 158]: the 50% inhibitory concentration (IC50) in test [1] (setting [5]) was 92 nM; in test [2] (setting [6]), 88 nM; in test [3] it was greater than 100000 nM; in test [4] it was greater than 150000 nM.

On to `Cc1cc(Cn2nc(CC3CCOCC3)c3ccc(S(=O)(=O)NC4(C)CC4)cc3c2=O)on1` [Example 308], for which the IC50 was 274 nM in test [1] (setting [5]), 201 nM in test [2] (setting [6]), greater than 150000 nM in test [3] and greater than 150000 nM in test [4].

One may read the IC50 as the midpoint of a concentration-inhibition curve.
